# According to patent publication US10881105B2, “Method for breaking dormancy in deciduous trees” (Tapazol Chemical Works Ltd., priority 2014, dated 2021):
# Test system: Black Gem (P. nigra) plums
# Assay: Bud break assessment after spraying, dormancy release in black gem plums (Example 1)
# Type: in vivo
# Settings: above 15 grams per liter oil; data not shown
# Description: On the day in which spraying was initiated the number of accumulated chilling units was 14 (being equivalent of 200 hours of chilling). The trees were at a stage where 10% of the bulbs were swollen. Three branches facing different directions were selected in each tree. The upper 20 cm in each branch were examined Each branch contained approximately 13 buds. Each bud was evaluated for bud progression on three separate occasions and bud progression percentages were normalized across the examined branches [table] [table]
smiles,measurement,value
"O=[N+]([O-])c1cc(C(F)(F)F)c(Cl)c([N+](=O)[O-])c1Nc1ncc(C(F)(F)F)cc1Cl [fluazinam, 3-chloro-N-(3-chloro-5-trifluoromethyl-2-pyridyl)-α,α,α-trifluoro-2,6-dinitro-p-toluidine]",efficacy of the composition versus concentration of Fluazinam in oil (regression),the efficacy of the composition decreased
